The subject of data set [1] is MV4-11. Briefly: Antiproliferative activity against human MV4-11 cells incubated for 7 days by PrestoBlue Cell Viability assay. Format: functional, cell-based. The following applies: MV4-11, 168 h.
Data set [2] deals with Voltage-gated inwardly rectifying potassium channel KCNH2 (Homo sapiens, UniProt Q12809). Kind of data set: Inhibition of human ERG expressed in CHO cells by Q-patch clamp assay. Format: toxicity, cell-based.
A further data set relates to Raji. Briefly: Antiproliferative activity against human Raji cells incubated for 72 hrs by MTT assay. Format: functional, cell-based.
For data set [3], the system named is MV4-11. Kind of data set: Induction of apoptosis in human MV4-11 cells assessed as early apoptotic cells at 0.1 uM incubated for 24 hrs by FITC Annexin-V/PI staining based flow cytometry analysis (reference value: 2.68%). Format: functional.
The next data set addresses T1, Menin (Homo sapiens, UniProt O00255).
T1 sequence (O00255 whole entry): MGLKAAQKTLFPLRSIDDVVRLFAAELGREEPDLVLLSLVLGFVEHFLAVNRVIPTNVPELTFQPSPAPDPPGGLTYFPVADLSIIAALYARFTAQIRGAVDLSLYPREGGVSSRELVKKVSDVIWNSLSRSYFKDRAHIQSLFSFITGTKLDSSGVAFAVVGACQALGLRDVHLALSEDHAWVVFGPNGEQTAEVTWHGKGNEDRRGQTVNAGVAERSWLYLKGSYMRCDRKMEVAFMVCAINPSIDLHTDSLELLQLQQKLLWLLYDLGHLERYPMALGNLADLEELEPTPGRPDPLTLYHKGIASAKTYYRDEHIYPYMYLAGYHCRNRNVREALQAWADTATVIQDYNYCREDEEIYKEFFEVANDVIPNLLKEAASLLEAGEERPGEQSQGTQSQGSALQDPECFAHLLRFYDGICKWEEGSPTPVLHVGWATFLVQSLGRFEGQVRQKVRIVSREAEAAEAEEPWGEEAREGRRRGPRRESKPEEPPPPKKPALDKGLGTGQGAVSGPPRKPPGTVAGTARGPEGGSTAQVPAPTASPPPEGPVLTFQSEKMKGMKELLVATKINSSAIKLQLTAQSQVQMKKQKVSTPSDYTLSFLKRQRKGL
Briefly: Binding affinity to menin (unknown origin) incubated for 1 hr by fluorescence polarization assay.

Data set [4] concerns MV4-11. Briefly: Effect on cell differentiation in human MV4-11 cells assessed as assessed as increase in CD11b protein expression at M2-1 at 10 uM incubated for 7 days by flow cytometry analysis (reference value: 86.12%). In kind it is functional. The settings on record: time 7 day. (A flow cytometer gives signals particle by particle.)
A short description of data set [5]: Antiproliferative activity against human NCM460 cells incubated for 72 hrs by MTT assay. In kind it is toxicity, cell-based. In general terms: Formazan colour is commonly taken as a measure of viable cells.
For data set [6], the system named is MV4-11. Kind of data set: Effect on cell differentiation in human MV4-11 cells assessed as decrease in MEIS1 expression level at 0.5 uM by qPCR analysis. Format: functional, cell-based. The following applies: time 24-48 hrs, TDE = time-dependent effect. A general note: In qPCR the cycle at which signal appears reflects the starting amount.
A further data set has as its system Ramos. Briefly: Antiproliferative activity against human Ramos cells incubated for 72 hrs by MTT assay. Format: functional, cell-based.
The test system of data set [7] is MV4-11. Briefly: Effect on cell differentiation in human MV4-11 cells assessed as decrease in MEIS1 expression level incubated for 48 hrs by qPCR analysis. In kind it is functional, cell-based.
Data set [8] has as its system MV4-11. Briefly: Induction of apoptosis in human MV4-11 cells assessed as viable cells at 10 uM incubated for 24 hrs by FITC Annexin-V/PI staining based flow cytometry analysis (reference value: 94.27%). In kind it is functional. The following applies: read-out: Activity.
Another data set concerns Pfeiffer. Briefly: Antiproliferative activity against human Pfeiffer cells incubated for 72 hrs by MTT assay. Format: functional, cell-based.
Data set [9] relates to MV4-11. Kind of data set: Effect on cell differentiation in human MV4-11 cells assessed as decrease in HOXA9 expression level at 0.5 uM by qPCR analysis. In kind it is functional, cell-based. The settings on record: time 24-48 hrs, TDE = time-dependent effect.
Data set [10] deals with MV4-11. Kind of data set: Induction of apoptosis in human MV4-11 cells assessed as necrotic cells at 10 uM incubated for 24 hrs by FITC Annexin-V/PI staining based flow cytometry analysis (reference value: 0.04%). In kind it is functional.
Data set [11] relates to MV4-11. Kind of data set: Induction of apoptosis in human MV4-11 cells assessed as late apoptotic cells at 10 uM incubated for 24 hrs by FITC Annexin-V/PI staining based flow cytometry analysis (reference value: 3%). Format: functional.
Data set [12] relates to MV4-11. Kind of data set: cells. The settings on record: Homo sapiens, MV4-11, 72 h.
Description: Antiproliferative activity against human MV4-11 cells incubated for 72 hrs by MTT assay
Data set [13] concerns MV4-11. Kind of data set: Induction of cell cycle arrest in human MV4-11 cells assessed as accumulation of cells at G0/G1 phase incubated for 24 hrs by PI/RNase staining based flow cytometry analysis. The following applies: dose 0.1-10 µM. In kind it is functional.
Another data set has as its system HL-60. Kind of data set: Antiproliferative activity against human HL-60 cells incubated for 72 hrs by MTT assay. Format: functional, cell-based. The settings on record: HL-60, 72 h.
Data set [14] relates to MV4-11. Briefly: Induction of apoptosis in human MV4-11 cells assessed as late apoptotic cells at 0.1 uM incubated for 24 hrs by FITC Annexin-V/PI staining based flow cytometry analysis (reference value: 3%). Format: functional.
The test system of data set [15] is MV4-11. Kind of data set: Induction of apoptosis in human MV4-11 cells assessed as viable cells at 0.1 uM incubated for 24 hrs by FITC Annexin-V/PI staining based flow cytometry analysis (reference value: 94.27%). In kind it is functional. The following applies: read-out: Activity.
Data set [16] concerns MV4-11. Kind of data set: Effect on cell differentiation in human MV4-11 cells assessed as assessed as increase in CD11b protein expression at M2-2 at 1 uM incubated for 7 days by flow cytometry analysis (reference value: 13.86%). Format: functional. The settings on record: time 7 day.
For data set [17], the system named is MV4-11. Kind of data set: Induction of apoptosis in human MV4-11 cells assessed as early apoptotic cells at 10 uM incubated for 24 hrs by FITC Annexin-V/PI staining based flow cytometry analysis (reference value: 2.68%). Format: functional.
For data set [18], the system named is MV4-11. Kind of data set: Induction of apoptosis in human MV4-11 cells assessed as late apoptotic cells at 1 uM incubated for 24 hrs by FITC Annexin-V/PI staining based flow cytometry analysis (reference value: 3%). In kind it is functional.
Data set [19] relates to MV4-11. Kind of data set: Effect on cell differentiation in human MV4-11 cells assessed as assessed as increase in CD11b protein expression at M2-1 at 0.1 uM incubated for 7 days by flow cytometry analysis (reference value: 86.12%). Format: functional. The following applies: time 7 day.
For data set [20], the system named is MV4-11. Briefly: Induction of apoptosis in human MV4-11 cells assessed as viable cells at 1 uM incubated for 24 hrs by FITC Annexin-V/PI staining based flow cytometry analysis (reference value: 94.27%). In kind it is functional. The following applies: read-out: Activity.
A further data set concerns SU-DHL-6. Briefly: Antiproliferative activity against human SU-DHL-6 cells incubated for 72 hrs by MTT assay. The settings on record: SU-DHL-6, 72 h. Format: functional, cell-based.
In data set [21] the test system is MV4-11. Briefly: Induction of apoptosis in human MV4-11 cells assessed as necrotic cells at 0.1 uM incubated for 24 hrs by FITC Annexin-V/PI staining based flow cytometry analysis (reference value: 0.04%). Format: functional.
Data set [22] relates to MV4-11. Briefly: Induction of apoptosis in human MV4-11 cells assessed as early apoptotic cells at 1 uM incubated for 24 hrs by FITC Annexin-V/PI staining based flow cytometry analysis (reference value: 2.68%). Format: functional.
For data set [23], the system named is MV4-11. Kind of data set: Effect on cell differentiation in human MV4-11 cells assessed as assessed as increase in CD11b protein expression at M2-2 at 10 uM incubated for 7 days by flow cytometry analysis (reference value: 13.86%). The following applies: time 7 day. In kind it is functional.
The next data set concerns MCF7. Kind of data set: Antiproliferative activity against human MCF7 cells incubated for 72 hrs by MTT assay. The following applies: MCF7, 72 h. Format: functional, cell-based.
In data set [24] the test system is MV4-11. Kind of data set: Effect on cell differentiation in human MV4-11 cells assessed as assessed as increase in CD11b protein expression at M2-1 at 1 uM incubated for 7 days by flow cytometry analysis (reference value: 86.12%). Format: functional. The settings on record: time 7 day.
Another data set deals with HCT-116. Kind of data set: Antiproliferative activity against human HCT-116 cells incubated for 72 hrs by MTT assay. In kind it is functional, cell-based. The following applies: HCT-116, 72 h.
For data set [25], the system named is MV4-11. Kind of data set: Effect on cell differentiation in human MV4-11 cells assessed as decrease in HOXA9 expression level incubated for 48 hrs by qPCR analysis. Format: functional, cell-based.
Data set [26] deals with MV4-11. Kind of data set: Induction of apoptosis in human MV4-11 cells assessed as necrotic cells at 1 uM incubated for 24 hrs by FITC Annexin-V/PI staining based flow cytometry analysis (reference value: 0.04%). Format: functional.
The subject of data set [27] is MV4-11. Kind of data set: Effect on cell differentiation in human MV4-11 cells assessed as assessed as increase in CD11b protein expression at M2-2 at 0.1 uM incubated for 7 days by flow cytometry analysis (reference value: 13.86%). In kind it is functional. The settings on record: time 7 day.
Data set [28] concerns the target T2, Menin/Histone-lysine N-methyltransferase MLL (Homo sapiens, UniProt O00255). Kind of data set: Inhibition of human menin-MLL (unknown origin) protein-protein interaction by fluorescence polarization assay.
Data set [29] deals with T2, Menin/Histone-lysine N-methyltransferase MLL. Kind of data set: Inhibition of human menin-MLL (unknown origin) protein-protein interaction incubated for 0.5 to 4 hrs by TR-FRET assay.

T2 sequence (Q03164 1-2718 partner limits assumed, one chain of several): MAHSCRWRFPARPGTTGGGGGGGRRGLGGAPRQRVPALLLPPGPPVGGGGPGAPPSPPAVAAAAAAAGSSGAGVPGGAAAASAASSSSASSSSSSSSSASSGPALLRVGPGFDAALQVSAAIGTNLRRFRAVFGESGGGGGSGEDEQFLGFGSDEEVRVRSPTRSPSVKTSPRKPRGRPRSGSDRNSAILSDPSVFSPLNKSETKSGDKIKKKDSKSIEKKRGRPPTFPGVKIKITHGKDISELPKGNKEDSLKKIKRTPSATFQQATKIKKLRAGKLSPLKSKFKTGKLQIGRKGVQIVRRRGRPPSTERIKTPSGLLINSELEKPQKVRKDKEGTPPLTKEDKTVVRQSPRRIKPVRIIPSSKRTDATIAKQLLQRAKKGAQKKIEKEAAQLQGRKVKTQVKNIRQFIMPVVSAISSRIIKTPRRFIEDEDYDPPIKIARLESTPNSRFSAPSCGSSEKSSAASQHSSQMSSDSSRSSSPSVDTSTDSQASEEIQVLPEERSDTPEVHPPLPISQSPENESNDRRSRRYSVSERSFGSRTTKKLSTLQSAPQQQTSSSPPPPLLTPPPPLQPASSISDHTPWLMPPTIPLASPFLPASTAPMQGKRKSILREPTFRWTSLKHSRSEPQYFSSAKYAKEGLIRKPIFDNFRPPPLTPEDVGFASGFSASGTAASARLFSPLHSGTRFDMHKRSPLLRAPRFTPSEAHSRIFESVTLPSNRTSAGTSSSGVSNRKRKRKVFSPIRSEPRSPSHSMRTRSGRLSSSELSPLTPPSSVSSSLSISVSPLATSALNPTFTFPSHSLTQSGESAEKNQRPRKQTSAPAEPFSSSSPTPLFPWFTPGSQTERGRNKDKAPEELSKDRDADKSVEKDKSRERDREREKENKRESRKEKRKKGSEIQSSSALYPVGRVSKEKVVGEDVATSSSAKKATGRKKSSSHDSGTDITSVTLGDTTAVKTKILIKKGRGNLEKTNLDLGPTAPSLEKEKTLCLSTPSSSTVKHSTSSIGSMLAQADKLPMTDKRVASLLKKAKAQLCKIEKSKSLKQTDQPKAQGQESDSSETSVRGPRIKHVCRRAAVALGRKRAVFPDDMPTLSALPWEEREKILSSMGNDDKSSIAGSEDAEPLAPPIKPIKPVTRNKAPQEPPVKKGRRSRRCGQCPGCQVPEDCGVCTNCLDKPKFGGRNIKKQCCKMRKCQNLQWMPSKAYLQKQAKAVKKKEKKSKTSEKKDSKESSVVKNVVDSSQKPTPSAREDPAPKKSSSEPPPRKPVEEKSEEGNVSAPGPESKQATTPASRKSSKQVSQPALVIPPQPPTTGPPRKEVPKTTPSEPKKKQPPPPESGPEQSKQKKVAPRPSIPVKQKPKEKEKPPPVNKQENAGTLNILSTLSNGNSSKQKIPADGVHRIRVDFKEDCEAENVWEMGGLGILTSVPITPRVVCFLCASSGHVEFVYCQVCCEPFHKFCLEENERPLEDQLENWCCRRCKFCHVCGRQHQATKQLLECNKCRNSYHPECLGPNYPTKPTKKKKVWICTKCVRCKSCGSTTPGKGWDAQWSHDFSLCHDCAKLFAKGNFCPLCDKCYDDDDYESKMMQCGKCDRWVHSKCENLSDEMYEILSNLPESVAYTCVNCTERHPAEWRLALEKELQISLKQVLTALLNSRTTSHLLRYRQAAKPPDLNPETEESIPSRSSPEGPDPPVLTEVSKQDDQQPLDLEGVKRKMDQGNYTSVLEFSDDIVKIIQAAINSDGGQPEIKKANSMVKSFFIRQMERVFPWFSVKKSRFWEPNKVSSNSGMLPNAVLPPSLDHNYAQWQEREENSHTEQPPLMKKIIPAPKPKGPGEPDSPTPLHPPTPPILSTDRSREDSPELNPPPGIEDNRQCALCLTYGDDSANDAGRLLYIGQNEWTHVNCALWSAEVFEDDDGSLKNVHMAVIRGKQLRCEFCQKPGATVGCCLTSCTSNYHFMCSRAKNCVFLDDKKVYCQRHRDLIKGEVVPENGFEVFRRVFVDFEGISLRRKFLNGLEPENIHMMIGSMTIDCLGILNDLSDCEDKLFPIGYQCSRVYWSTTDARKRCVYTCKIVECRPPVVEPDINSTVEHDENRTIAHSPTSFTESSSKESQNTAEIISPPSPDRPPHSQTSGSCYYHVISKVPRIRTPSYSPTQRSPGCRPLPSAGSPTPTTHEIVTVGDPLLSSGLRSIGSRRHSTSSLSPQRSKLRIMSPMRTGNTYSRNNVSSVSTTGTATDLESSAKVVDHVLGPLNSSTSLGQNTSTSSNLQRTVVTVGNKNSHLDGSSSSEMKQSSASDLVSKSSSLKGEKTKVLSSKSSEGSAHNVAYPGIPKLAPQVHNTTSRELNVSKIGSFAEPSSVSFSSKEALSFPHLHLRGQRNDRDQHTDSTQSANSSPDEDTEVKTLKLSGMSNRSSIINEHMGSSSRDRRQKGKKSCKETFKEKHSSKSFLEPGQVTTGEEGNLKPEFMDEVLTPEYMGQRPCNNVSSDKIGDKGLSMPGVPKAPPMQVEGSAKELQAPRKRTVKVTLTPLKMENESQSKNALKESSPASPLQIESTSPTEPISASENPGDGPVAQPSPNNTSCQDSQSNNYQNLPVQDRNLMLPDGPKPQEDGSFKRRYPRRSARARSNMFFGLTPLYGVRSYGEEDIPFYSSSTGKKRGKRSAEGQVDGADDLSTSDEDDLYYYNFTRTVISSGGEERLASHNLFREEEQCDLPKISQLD
T2 sequence (Q03164 2719-3969 partner limits assumed, one chain of several): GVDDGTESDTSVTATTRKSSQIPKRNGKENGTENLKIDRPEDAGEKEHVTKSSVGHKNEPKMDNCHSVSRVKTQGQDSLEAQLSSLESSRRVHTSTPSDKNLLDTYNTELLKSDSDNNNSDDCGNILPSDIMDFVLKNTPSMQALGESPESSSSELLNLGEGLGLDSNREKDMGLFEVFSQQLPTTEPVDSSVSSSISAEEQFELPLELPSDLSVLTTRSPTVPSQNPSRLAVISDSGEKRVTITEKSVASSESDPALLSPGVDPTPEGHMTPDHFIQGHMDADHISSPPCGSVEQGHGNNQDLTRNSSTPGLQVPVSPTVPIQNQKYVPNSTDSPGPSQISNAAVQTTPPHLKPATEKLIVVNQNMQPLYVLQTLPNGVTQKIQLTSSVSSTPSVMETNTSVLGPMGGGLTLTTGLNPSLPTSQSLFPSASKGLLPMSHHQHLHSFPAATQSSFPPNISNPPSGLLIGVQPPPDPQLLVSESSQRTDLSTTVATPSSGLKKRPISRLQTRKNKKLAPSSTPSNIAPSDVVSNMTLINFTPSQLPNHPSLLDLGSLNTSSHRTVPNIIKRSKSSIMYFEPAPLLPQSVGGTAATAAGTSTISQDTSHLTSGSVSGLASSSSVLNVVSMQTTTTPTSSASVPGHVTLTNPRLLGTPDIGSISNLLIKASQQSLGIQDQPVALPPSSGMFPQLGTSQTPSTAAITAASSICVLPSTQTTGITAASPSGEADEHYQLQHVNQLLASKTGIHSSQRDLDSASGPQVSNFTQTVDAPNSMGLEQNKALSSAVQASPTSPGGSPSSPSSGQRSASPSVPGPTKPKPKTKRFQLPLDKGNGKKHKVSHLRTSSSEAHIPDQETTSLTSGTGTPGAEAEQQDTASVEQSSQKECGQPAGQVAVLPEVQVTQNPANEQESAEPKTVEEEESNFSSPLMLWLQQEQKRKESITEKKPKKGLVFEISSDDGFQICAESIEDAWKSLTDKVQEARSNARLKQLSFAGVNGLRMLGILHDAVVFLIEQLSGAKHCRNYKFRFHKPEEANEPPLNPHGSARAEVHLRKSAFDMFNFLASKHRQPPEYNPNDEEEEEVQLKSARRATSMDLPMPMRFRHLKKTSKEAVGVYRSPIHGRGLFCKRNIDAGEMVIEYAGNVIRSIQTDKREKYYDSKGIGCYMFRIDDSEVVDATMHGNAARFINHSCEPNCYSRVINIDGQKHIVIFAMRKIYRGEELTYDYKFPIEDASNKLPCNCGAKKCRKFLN
Voltage-gated inwardly rectifying potassium channel KCNH2, sequence (Q12809 whole entry): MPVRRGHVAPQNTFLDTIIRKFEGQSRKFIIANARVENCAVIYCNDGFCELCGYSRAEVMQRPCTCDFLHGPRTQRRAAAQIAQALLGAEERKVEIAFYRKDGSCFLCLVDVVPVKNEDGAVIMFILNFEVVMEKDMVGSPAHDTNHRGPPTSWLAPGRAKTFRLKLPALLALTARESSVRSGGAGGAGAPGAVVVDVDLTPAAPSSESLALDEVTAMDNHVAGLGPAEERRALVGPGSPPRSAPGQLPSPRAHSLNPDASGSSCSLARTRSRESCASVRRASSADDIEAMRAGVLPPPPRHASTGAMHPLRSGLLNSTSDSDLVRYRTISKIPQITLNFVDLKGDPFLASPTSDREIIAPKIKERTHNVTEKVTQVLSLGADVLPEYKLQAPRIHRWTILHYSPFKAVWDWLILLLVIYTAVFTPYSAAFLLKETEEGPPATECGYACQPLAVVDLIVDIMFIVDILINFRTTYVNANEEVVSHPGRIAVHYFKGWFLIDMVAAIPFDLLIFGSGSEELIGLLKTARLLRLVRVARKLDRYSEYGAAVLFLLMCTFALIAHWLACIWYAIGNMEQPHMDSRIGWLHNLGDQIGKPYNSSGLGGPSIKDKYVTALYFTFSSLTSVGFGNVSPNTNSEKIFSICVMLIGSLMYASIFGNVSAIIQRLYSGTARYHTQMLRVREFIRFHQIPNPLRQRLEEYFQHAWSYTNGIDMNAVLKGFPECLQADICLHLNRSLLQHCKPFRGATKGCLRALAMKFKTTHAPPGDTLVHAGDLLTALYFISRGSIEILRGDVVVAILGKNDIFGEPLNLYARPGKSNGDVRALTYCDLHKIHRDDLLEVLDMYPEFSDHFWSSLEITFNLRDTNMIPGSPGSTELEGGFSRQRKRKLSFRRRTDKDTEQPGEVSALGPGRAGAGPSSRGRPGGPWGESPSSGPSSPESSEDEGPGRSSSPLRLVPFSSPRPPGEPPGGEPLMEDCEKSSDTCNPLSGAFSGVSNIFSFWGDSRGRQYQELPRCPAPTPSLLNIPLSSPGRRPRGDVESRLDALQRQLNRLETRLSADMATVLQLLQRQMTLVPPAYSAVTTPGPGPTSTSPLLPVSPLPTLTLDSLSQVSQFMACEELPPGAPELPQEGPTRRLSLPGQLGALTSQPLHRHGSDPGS

On to `CC(C)N(C)C(=O)c1cc(F)ccc1-n1cc(C2CCN(C(=O)[C@H]3NC4CCC3CC4)CC2)c2ccncc21`, for which the IC50 in the data set with MV4-11 [1] is 0.073 µM; in [2] it was over 100 µM.

As for `N#Cc1ccc(N2CC(CN3CCC(n4cc(-c5ccc(F)cc5)c5c(N)ncnc54)CC3)C2)cc1`, the IC50 was over 10 µM in the data set with Raji; 0.38 µM on Menin; over 10 µM with Ramos; over 10 µM with Pfeiffer; 1.07 µM in the data set on MV4-11 [12]; over 10 µM in the data set on HL-60. The IC50 with SU-DHL-6 was 6.87 µM; in the data set with MCF7, over 10 µM; in the data set on HCT-116, over 10 µM. The Activity was 3.34% in the data set on MV4-11 [3]; 30.31% in the data set on MV4-11 [4]; “Tde” in the data set with MV4-11 [6]; “Dose-Dependent Effect” in the data set with MV4-11 [7]; “Tde” with MV4-11 [9]; 1.09% in the data set with MV4-11 [10]. In addition, the Activity in the data set on MV4-11 [11] is 34.56%; in the data set on MV4-11 [13], “Dose-Dependent Effect”; with MV4-11 [14], 2.75%; with MV4-11 [16], 31.47%; in the data set with MV4-11 [17], 8.52%; in the data set on MV4-11 [18], 4.23%. For the same molecule, the Activity in the data set on MV4-11 [19] was 85.59%; in the data set on MV4-11 [21] it was 0.05%; in the data set on MV4-11 [22], 4.53%; with MV4-11 [23], 69.67%; in the data set on MV4-11 [24], 68.53%; with MV4-11 [25], “Dose-Dependent Effect”. Further, the figures for the Activity in the data set on MV4-11 [26] and in the data set on MV4-11 [27] were 0.14% and 14.39%, respectively. In data set [5], the IC50 at 72 h is over 10 µM. Further, the viability at 10 µM in the data set on MV4-11 [8] stood at 55.8%. For the same molecule, the viability at 0.1 µM with MV4-11 [15] is 93.9%. The viability at 1 µM in the data set with MV4-11 [20] came to 91%.

Take `CNc1nc(NC2CCN(Cc3ccc4c(cc(C#N)n4CC45CC(NC=O)(C4)C5)c3C)CC2)c2cc(CC(F)(F)F)sc2n1`: in [28], the IC50 worked out at 0.00051 µM.

Regarding `Cc1c(CN2CCC3(CC2)CN(c2ncnc4sc(CC(F)(F)F)cc24)C3)ccc2c1cc(C#N)n2CC(N)=O`, in [29], the IC50 worked out at 0.008 µM.

Usually IC50 stands for the concentration needed to halve the response being measured. A higher IC50 goes with a need for much substance.

The values are drawn from ChEMBL document CHEMBL5505977, “Discovery of novel pyrrolo[2,3-d]pyrimidines as potent menin-mixed lineage leukemia interaction inhibitors” (Eur J Med Chem, 2024).
